Measurements from patent publication US20240190880A1 (THE REGENTS OF THE UNIVERSITY OF MICHIGAN, priority 2021, published 2024).

Biological target: T1, ER (Homo sapiens, UniProt P03372)
T1 construct: host or cells: T47D and MCF7 human breast cancer cells
T1 sequence (P03372 1-595): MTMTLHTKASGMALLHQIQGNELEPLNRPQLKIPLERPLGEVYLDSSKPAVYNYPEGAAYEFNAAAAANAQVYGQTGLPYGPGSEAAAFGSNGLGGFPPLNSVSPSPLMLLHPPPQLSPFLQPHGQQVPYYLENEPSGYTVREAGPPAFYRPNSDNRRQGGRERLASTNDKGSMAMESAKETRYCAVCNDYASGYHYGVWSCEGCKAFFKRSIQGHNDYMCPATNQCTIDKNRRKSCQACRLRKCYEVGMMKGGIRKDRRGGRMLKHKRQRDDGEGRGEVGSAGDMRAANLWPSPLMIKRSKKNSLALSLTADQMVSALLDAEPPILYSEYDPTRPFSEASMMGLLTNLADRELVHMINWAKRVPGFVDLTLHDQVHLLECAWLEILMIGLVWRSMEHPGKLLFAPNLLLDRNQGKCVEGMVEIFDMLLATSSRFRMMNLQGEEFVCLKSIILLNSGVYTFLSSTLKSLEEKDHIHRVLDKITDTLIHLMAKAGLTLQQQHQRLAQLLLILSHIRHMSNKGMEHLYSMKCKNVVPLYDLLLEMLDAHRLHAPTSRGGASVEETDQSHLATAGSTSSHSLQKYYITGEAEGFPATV
Test: ER degradation activity, in-cell western blot analysis in T47D cells
Assay type: cell-based
Details: 16 hours, Table A does not say which cell line (T47D or MCF7), read-out: Potency (DC50)
Experimental: ER degradation activity was evaluated in the human breast cancer cell line T47D and MCF7 purchased from the American Type Culture Collection (ATCC), Manassas, VA, and maintained and cultured in Dulbecco's Modified Eagle's medium (DMEM) containing 10% fetal bovine serum, 1 unit/ml of penicillin and 1 μg/ml of streptomycin.
The protocol for the in-cell western blot analysis: a. seed cells in black-sided/clear bottom 96- or 384-well plates at 40,000 or 10,000 cells/well, overnight; b. add diluted compounds (final 0.5% DMSO), 16 hours. […] RT 2 h, gentle shaking. Negative control: cells plus secondary antibodies (no primary antibodies); e. wash ×4 with PBS+0.05-0.1% Tween 20, gentel shaking; f. anti-rabbit-680 and anti-mouse-800 (both 1:1000 in LiCor block+0.05% Tween20, RT 1 h, gentle shaking, no light. LI-COR: 0.2% to reduce background; g. wash×4 with PBS+0.05% Tween 20, gental shaking; h. add 100 μL or 25 μL of PBS to each well and read on CLX plate reader. The relative ER percentage in treated cells were obtained by comparing the values of treated wells to those in untreated and DMSO-treated wells as 100%.

DC50 [µM] | SMILES
0.01 to 0.1 | C[C@H]1CC2(CCN(c3ccc([C@@H]4c5ccc(O)cc5CC[C@@H]4c4ccccc4)cc3)CC2)CN1C(=O)CN1Cc2cc3c(cc2C1)C(=O)N(C1CCC(=O)NC1=O)C3=O (mixture of isomers) [E 142, Rac-2-(2,6-dioxopiperidin-3-yl)-6-(2-((S)-8-(4-((1R,2S)-6-hydroxy-2-phenyl-1,2,3,4-tetrahydronaphthalen-1-yl)phenyl)-3-methyl-2,8-diazaspiro[4.5]decan-2-yl)-2-oxoethyl)-6,7-dihydropyrrolo[3,4-f]isoindole-1,3(2H,5H)-dione]
0.01 to 0.1 | C[C@H]1CC2(CCN(C(=O)CN3Cc4cc5c(cc4C3)C(=O)N(C3CCC(=O)NC3=O)C5=O)CC2)CN1c1ccc([C@@H]2c3ccc(O)cc3CC[C@@H]2c2ccccc2)cc1 (mixture of isomers) [E 143, Rac-2-(2,6-dioxopiperidin-3-yl)-6-(2-((S)-2-(4-((1R,2S)-6-hydroxy-2-phenyl-1,2,3,4-tetrahydronaphthalen-1-yl)phenyl)-3-methyl-2,8-diazaspiro[4.5]decan-8-yl)-2-oxoethyl)-6,7-dihydropyrrolo[3,4-f]isoindole-1,3(2H,5H)-dione]
> 0.1 | C[C@H]1CC2(CCN(CC(=O)N3Cc4cc5c(cc4C3)C(=O)N(C3CCC(=O)NC3=O)C5=O)CC2)CN1c1ccc([C@@H]2c3ccc(O)cc3CC[C@@H]2c2ccccc2)cc1 (mixture of isomers) [E 144, Rac-2-(2,6-dioxopiperidin-3-yl)-6-(2-((S)-2-(4-((1R,2S)-6-hydroxy-2-phenyl-1,2,3,4-tetrahydronaphthalen-1-yl)phenyl)-3-methyl-2,8-diazaspiro[4.5]decan-8-yl)acetyl)-6,7-dihydropyrrolo[3,4-f]isoindole-1,3(2H,5H)-dione]
0.01 to 0.1 | C[C@@H]1CC2(CCN(c3ccc([C@@H]4c5ccc(O)cc5CC[C@@H]4c4ccc(F)cc4)cc3)CC2)CN1C(=O)CN1Cc2cc3c(cc2C1)C(=O)N(C1CCC(=O)NC1=O)C3=O (mixture of isomers) [E 145, Rac-2-(2,6-dioxopiperidin-3-yl)-6-(2-((R)-8-(4-((1R,2S)-2-(4-fluorophenyl)-6-hydroxy-1,2,3,4-tetrahydronaphthalen-1-yl)phenyl)-3-methyl-2,8-diazaspiro[4.5]decan-2-yl)-2-oxoethyl)-6,7-dihydropyrrolo[3,4-f]isoindole-1,3(2H,5H)-dione]
> 0.1 | C[C@@H]1CC2(CCN(c3ccc([C@@H]4c5ccc(O)cc5CC[C@@H]4c4ccc(F)cc4)cc3)CC2)CN1CC(=O)N1Cc2cc3c(cc2C1)C(=O)N(C1CCC(=O)NC1=O)C3=O (mixture of isomers) [E 146, Rac-2-(2,6-dioxopiperidin-3-yl)-6-(2-((R)-8-(4-((1R,2S)-2-(4-fluorophenyl)-6-hydroxy-1,2,3,4-tetrahydronaphthalen-1-yl)phenyl)-3-methyl-2,8-diazaspiro[4.5]decan-2-yl)acetyl)-6,7-dihydropyrrolo[3,4-f]isoindole-1,3(2H,5H)-dione]
> 0.1 | C[C@H]1CC2(CCN(c3ccc([C@@H]4c5ccc(O)cc5CC[C@@H]4c4ccccc4)cc3)CC2)CN1CC(=O)N1Cc2cc3c(cc2C1)C(=O)N(C1CCC(=O)NC1=O)C3=O (mixture of isomers) [E 151, Rac-2-(2,6-dioxopiperidin-3-yl)-6-(2-((S)-8-(4-((1R,2S)-6-hydroxy-2-phenyl-1,2,3,4-tetrahydronaphthalen-1-yl)phenyl)-3-methyl-2,8-diazaspiro[4.5]decan-2-yl)acetyl)-6,7-dihydropyrrolo[3,4-f]isoindole-1,3(2H,5H)-dione]
> 0.1 | O=C1CCC(N2C(=O)c3cc4c(cc3C2=O)CN(CC(=O)N2CCC[C@H](Oc3ccc([C@@H]5c6ccc(O)cc6CC[C@@H]5c5ccc(F)cc5)cc3)C2)C4)C(=O)N1 (mixture of isomers) [E 157, Rac-2-(2,6-dioxopiperidin-3-yl)-6-(2-((S)-3-(4-((1R,2S)-2-(4-fluorophenyl)-6-hydroxy-1,2,3,4-tetrahydronaphthalen-1-yl)phenoxy)piperidin-1-yl)-2-oxoethyl)-6,7-dihydropyrrolo[3,4-f]isoindole-1,3(2H,5H)-dione]
> 0.1 | O=C1CCC(N2C(=O)c3cc4c(cc3C2=O)CN(C(=O)CN2CCC[C@H](Oc3ccc([C@@H]5c6ccc(O)cc6CC[C@@H]5c5ccc(F)cc5)cc3)C2)C4)C(=O)N1 (mixture of isomers) [E 159, Rac-2-(2,6-dioxopiperidin-3-yl)-6-(2-((S)-3-(4-((1R,2S)-2-(4-fluorophenyl)-6-hydroxy-1,2,3,4-tetrahydronaphthalen-1-yl)phenoxy)piperidin-1-yl)acetyl)-6,7-dihydropyrrolo[3,4-f]isoindole-1,3(2H,5H)-dione]
> 0.1 | O=C1CCC(N2Cc3cc4c(cc3C2=O)CN(CC2CCN(c3ccc([C@@H]5c6ccc(O)cc6CC[C@@H]5c5ccccc5)cc3)CC2)C4)C(=O)N1 (mixture of isomers) [E 1, Rac-3-(6-((1-(4-((1R,2S)-6-hydroxy-2-phenyl-1,2,3,4-tetrahydronaphthalen-1-yl)phenyl)piperidin-4-yl)methyl)-1-oxo-3,5,6,7-tetrahydropyrrolo[3,4-f]isoindol-2(1H)-yl)piperidine-2,6-dione]
0.01 to 0.1 | O=C1CCC(N2C(=O)c3cc4c(cc3C2=O)CN(CC2CCN(c3ccc([C@@H]5c6ccc(O)cc6CC[C@@H]5c5ccccc5)cc3)CC2)C4)C(=O)N1 (mixture of isomers) [E 2, Rac-2-(2,6-dioxopiperidin-3-yl)-6-((1-(4-((1R,2S)-6-hydroxy-2-phenyl-1,2,3,4-tetrahydronaphthalen-1-yl)phenyl)piperidin-4-yl)methyl)-6,7-dihydropyrrolo[3,4-f]isoindole-1,3(2H,5H)-dione]
< 0.01 | O=C1CCC(N2Cc3cc4c(cc3C2=O)CN(C2CCN(CC3CCN(c5ccc([C@@H]6c7ccc(O)cc7CC[C@@H]6c6ccccc6)cc5)CC3)CC2)C4)C(=O)N1 (mixture of isomers) [E 3, Rac-3-(6-(1-((1-(4-((1R,2S)-6-hydroxy-2-phenyl-1,2,3,4-tetrahydronaphthalen-1-yl)phenyl)piperidin-4-yl)methyl)piperidin-4-yl)-1-oxo-3,5,6,7-tetrahydropyrrolo[3,4-f]isoindol-2(1H)-yl)piperidine-2,6-dione]
0.01 to 0.1 | O=C1CCC(N2Cc3cc4c(cc3C2=O)CN(CC(=O)N2CCC3(CCN(c5ccc([C@@H]6c7ccc(O)cc7CC[C@@H]6c6ccccc6)cc5)CC3)C2)C4)C(=O)N1 (mixture of isomers) [E 4, rac-3-(6-(2-(8-(4-((1R,2S)-6-hydroxy-2-phenyl-1,2,3,4-tetrahydronaphthalen-1-yl)phenyl)-2,8-diazaspiro[4.5]decan-2-yl)-2-oxoethyl)-1-oxo-3,5,6,7-tetrahydropyrrolo[3,4-f]isoindol-2(1H)-yl)piperidine-2,6-dione]
< 0.01 | O=C1CCC(N2Cc3cc4c(cc3C2=O)CN(CC(=O)N2CCC3(CC2)CN(c2ccc([C@@H]5c6ccc(O)cc6CC[C@@H]5c5ccccc5)cc2)C3)C4)C(=O)N1 (mixture of isomers) [E 5, rac-3-(6-(2-(2-(4-((1R,2S)-6-hydroxy-2-phenyl-1,2,3,4-tetrahydronaphthalen-1-yl)phenyl)-2,7-diazaspiro[3.5]nonan-7-yl)-2-oxoethyl)-1-oxo-3,5,6,7-tetrahydropyrrolo[3,4-f]isoindol-2(1H)-yl)piperidine-2,6-dione]
< 0.01 | O=C1CCC(N2Cc3cc4c(cc3C2=O)CN(CC(=O)N2CCC3(C2)CN(c2ccc([C@@H]5c6ccc(O)cc6CC[C@@H]5c5ccccc5)cc2)C3)C4)C(=O)N1 (mixture of isomers) [E 6, rac-3-(6-(2-(2-(4-((1R,2S)-6-hydroxy-2-phenyl-1,2,3,4-tetrahydronaphthalen-1-yl)phenyl)-2,6-diazaspiro[3.4]octan-6-yl)-2-oxoethyl)-1-oxo-3,5,6,7-tetrahydropyrrolo[3,4-f]isoindol-2(1H)-yl)piperidine-2,6-dione]
0.01 to 0.1 | O=C1CCC(N2C(=O)c3cc4c(cc3C2=O)CN(CC(=O)N2CCC3(CCN(c5ccc([C@@H]6c7ccc(O)cc7CC[C@@H]6c6ccccc6)cc5)CC3)C2)C4)C(=O)N1 (mixture of isomers) [E 7, rac-2-(2,6-dioxopiperidin-3-yl)-6-(2-(8-(4-((1R,2S)-6-hydroxy-2-phenyl-1,2,3,4-tetrahydronaphthalen-1-yl)phenyl)-2,8-diazaspiro[4.5]decan-2-yl)-2-oxoethyl)-6,7-dihydropyrrolo[3,4-f]isoindole-1,3(2H,5H)-dione]
